Data set [1] has as its system SMN2 minigene mRNA (SMN2-A minigene) in HEK293H cells. Nature of the data set: SMN2 minigene mRNA splicing RT-qPCR assay in cultured cells. In kind it is cell-based, human. Conditions: Homo sapiens, HEK293-H; concentration increasing full length SMN2 mRNA 1.5-fold relative to vehicle-treated cells; HEK293H cells with SMN2-A minigene, 24 hours, 7-point concentration data; read-out: EC1.5x for production of full length SMN2 mRNA. The method in brief: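 HEK293H cells stably carrying SMN2-A minigene treated with compounds (7-point, 3.16-fold dilutions, duplicates) for 24 h at 37 °C. Full-length exon 7-containing minigene mRNA measured by multiplex RT-qPCR with GAPDH, normalized and expressed relative to vehicle (modified ΔΔCt); EC1.5× is concentration giving 1.5-fold increase.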

For data set [2], the system named is Smn protein in SMA patient fibroblast cells (GM03813). Description: Smn protein assay in cultured cells (SMN HTRF). The format is cell-based, human. Conditions: SMA patient fibroblast cells, 48 hours; for EC1.5x for Smn protein expression: 7-point concentration curve, SMN HTRF, concentration producing 1.5 times Smn protein vs DMSO vehicle control; for maximum fold (Fold) increase of Smn protein: 7-point concentration data, fold relative to vehicle control. The method in brief:
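SMA patient fibroblasts (5,000/well, DMEM-10% FBS) treated 48 h at 37° C with 7-point, 3.16-fold compound series in triplicate; lysates read by SMN HTRF (665/620 nm ratio). Fold Smn increase over DMSO vehicle derived; EC1.5× is concentration giving 1.5-fold Smn, with maximum fold also reported.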
In general terms: In TR-FRET formats the signal depends on donor and acceptor labels being close together.

The term melting point denotes the temperature of the solid-liquid transition. The compound `CN1CCN(c2ccc3nc(-c4ccc5c(cnn5C)c4)cc(=O)n3c2)CC1` [Compound 489, 2-(1-methyl-1H-indazol-5-yl)-7-(4-methylpiperazin-1-yl)-4H-pyrido[1,2-a]pyrimidin-4-one] registered a melting point of 194 to 196 °C. The EC (1.5-fold increase) in data set [1] fell in the range of 0.1 to 0.3 µM. Moreover, in data set [2], the “EC1.5x for Smn protein expression” value was “** (an EC1.5× between >1 μM and ≤3 μM is indicated by two stars (**))”; the “maximum fold (Fold) increase of Smn protein” value (from here on “maximum fold (Fold) increase”) was “**** (a fold increase between >1.5 and ≤1.65 is indicated by four stars (****))”.
`Cc1cn2nc(-c3cc(=O)n4cc(C5CCN(CCCF)CC5)ccc4n3)cc2c(C)n1` [Compound 663, 2-(4,6-dimethylpyrazolo[1,5-a]pyrazin-2-yl)-7-[1-(3-fluoropropyl)piperidin-4-yl]-4H-pyrido[1,2-a]pyrimidin-4-one] returned a melting point of 186 to 188 °C. For the same compound, in data set [1], the EC (1.5-fold increase) was < 0.1 µM. In data set [2], the “EC1.5x for Smn protein expression” value is “**** (an EC1.5x≤0.3 μM is indicated by four stars (****))” and the “maximum fold (Fold) increase” value was “***** (a fold increase >1.65 is indicated by five stars (*****))”.
`Cc1cn2nc(-c3cc(=O)n4cc(N5CCN(CCO)CC5)ccc4n3)cc2cn1` [Compound 469, 7-[4-(2-hydroxyethyl)piperazin-1-yl]-2-(6-methylpyrazolo[1,5-a]pyrazin-2-yl)-4H-pyrido[1,2-a]pyrimidin-4-one] yielded a melting point of 254 to 256 °C. Also, in data set [1], the EC (1.5-fold increase) lay in the range of 0.1 to 0.3 µM. In addition, in data set [2], the “EC1.5x for Smn protein expression” value is “*** (an EC1.5× between >0.3 μM and ≤1 μM is indicated by three stars (***))”; the “maximum fold (Fold) increase” value is “***** (a fold increase >1.65 is indicated by five stars (*****))”.
With `CN1CCN(c2ccc3nc(-c4ccc5c(c4)OCO5)cc(=O)n3c2)CC1` [Compound 19, 2-(1,3-benzodioxol-5-yl)-7-(4-methylpiperazin-1-yl)-4H-pyrido[1,2-a]pyrimidin-4-one], the melting point lay within 235 to 237 °C. Also, the EC (1.5-fold increase) in data set [1] lay within 1 to 3 µM. Also, the “maximum fold (Fold) increase” value in data set [2] is “** (a fold increase between >1.2 and ≤1.35 is indicated by two stars (**))”.
Compound `CN1CCC(c2ccc3nc(-c4ccc5nn(C)cc5c4)cc(=O)n3c2)CC1` [Compound 578, 2-(2-methyl-2H-indazol-5-yl)-7-(1-methylpiperidin-4-yl)-4H-pyrido[1,2-a]pyrimidin-4-one] returned a melting point of 256 to 258 °C. For the same compound, the EC (1.5-fold increase) in data set [1] is < 0.1 µM. Also, in data set [2], the “EC1.5x for Smn protein expression” value is on record as “**** (an EC1.5x≤0.3 μM is indicated by four stars (****))” and the “maximum fold (Fold) increase” value is reported as “***** (a fold increase >1.65 is indicated by five stars (*****))”.
In turn, `CCc1nc(C)cn2nc(-c3cc(=O)n4cc(N5CCN(CCCF)CC5)ccc4n3)cc12` [Compound 665, 2-(4-ethyl-6-methylpyrazolo[1,5-a]pyrazin-2-yl)-7-[4-(3-fluoropropyl)piperazin-1-yl]-4H-pyrido[1,2-a]pyrimidin-4-one] came in with a melting point of 240 to 242 °C. Besides, the EC (1.5-fold increase) in data set [1] was in the range of 0.1 to 0.3 µM. For the same compound, in data set [2], the “EC1.5x for Smn protein expression” value is listed as “**** (an EC1.5x≤0.3 μM is indicated by four stars (****))” and the “maximum fold (Fold) increase” value was “***** (a fold increase >1.65 is indicated by five stars (*****))”.
Consider `Cc1cn2nc(-c3cc(=O)n4cc(CCCN(C)C)ccc4n3)cc2c(C)n1` [Cpd 769, 7-[3-(dimethylamino)propyl]-2-(4,6-dimethylpyrazolo[1,5-a]pyrazin-2-yl)-4H-pyrido[1,2-a]pyrimidin-4-one], for which the melting point fell in the range of 136 to 138 °C. Further, in data set [1], the EC (1.5-fold increase) fell in the range of 0.1 to 0.3 µM. Also, in data set [2], the “EC1.5x for Smn protein expression” value was “*** (an EC1.5× between >0.3 μM and ≤1 μM is indicated by three stars (***))”; the “maximum fold (Fold) increase” value is recorded as “***** (a fold increase >1.65 is indicated by five stars (*****))”.
`CCc1cc(-c2cc(=O)n3cc(C4CCN(C)CC4)ccc3n2)cn2cc(C)nc12` [Compound 697, 2-(8-ethyl-2-methylimidazo[1,2-a]pyridin-6-yl)-7-(1-methylpiperidin-4-yl)-4H-pyrido[1,2-a]pyrimidin-4-one]: the melting point fell in the range of 214 to 218 °C. Besides, the EC (1.5-fold increase) in data set [1] was < 0.1 µM. Besides, in data set [2], the “EC1.5x for Smn protein expression” value is “**** (an EC1.5x≤0.3 μM is indicated by four stars (****))” and the “maximum fold (Fold) increase” value is reported as “***** (a fold increase >1.65 is indicated by five stars (*****))”.
As for `Cc1nc2cc(-c3cc(=O)n4cc(N5CCCN(C)CC5)ccc4n3)ccc2s1` [Compound 177, 2-(2-methyl-1,3-benzothiazol-5-yl)-7-(4-methyl-1,4-diazepan-1-yl)-4H-pyrido[1,2-a]pyrimidin-4-one], the melting point is 165 to 170 °C. Besides, in data set [1], the EC (1.5-fold increase) was 0.1 to 0.3 µM. The “maximum fold (Fold) increase” value in data set [2] is “*** (a fold increase between >1.35 and ≤1.5 is indicated by three stars (***))”.
`Cc1cn2cc(-c3cc(=O)n4cc(C5=CCN(C)CC5)ccc4n3)ccc2n1` [Compound 430, 2-(2-methylimidazo[1,2-a]pyridin-6-yl)-7-(1-methyl-1,2,3,6-tetrahydropyridin-4-yl)-4H-pyrido[1,2-a]pyrimidin-4-one] gave a melting point of 137 to 140 °C. In addition, the EC (1.5-fold increase) in data set [1] was < 0.1 µM. For the same compound, in data set [2], the “EC1.5x for Smn protein expression” value is on record as “**** (an EC1.5x≤0.3 μM is indicated by four stars (****))”; the “maximum fold (Fold) increase” value was “**** (a fold increase between >1.5 and ≤1.65 is indicated by four stars (****))”.
For the compound `CCN1CCC(c2cn3c(=O)cc(-c4ccc5nn(C)cc5c4)nc3cn2)CC1` [Compound 568, 7-(1-ethylpiperidin-4-yl)-2-(2-methyl-2H-indazol-5-yl)-4H-pyrazino[1,2-a]pyrimidin-4-one], the melting point was 198 to 200 °C. Further, the EC (1.5-fold increase) in data set [1] was < 0.1 µM. Moreover, in data set [2], the “EC1.5x for Smn protein expression” value is given as “**** (an EC1.5x≤0.3 μM is indicated by four stars (****))” and the “maximum fold (Fold) increase” value is recorded as “***** (a fold increase >1.65 is indicated by five stars (*****))”.
The compound `Cn1ncc2cc(-c3cc(=O)n4cc(N5CCNCC5)ccc4n3)ccc21` [Compound 490, 2-(1-methyl-1H-indazol-5-yl)-7-(piperazin-1-yl)-4H-pyrido[1,2-a]pyrimidin-4-one] yielded a melting point of 206 to 208 °C. Also, in data set [1], the EC (1.5-fold increase) is < 0.1 µM. In data set [2], the “EC1.5x for Smn protein expression” value is “*** (an EC1.5× between >0.3 μM and ≤1 μM is indicated by three stars (***))”; the “maximum fold (Fold) increase” value is on record as “***** (a fold increase >1.65 is indicated by five stars (*****))”.
As for `COc1ccc(-c2cc(=O)n3cc(N4CCC(N(C)C)CC4)ccc3n2)cc1OC` [Compound 148, 2-(3,4-dimethoxyphenyl)-7-[4-(dimethylamino)piperidin-1-yl]-4H-pyrido[1,2-a]pyrimidin-4-one], the melting point lay in the range of 158 to 161 °C. In addition, in data set [1], the EC (1.5-fold increase) lay within 0.1 to 0.3 µM. Besides, in data set [2], the “EC1.5x for Smn protein expression” value was “** (an EC1.5× between >1 μM and ≤3 μM is indicated by two stars (**))”; the “maximum fold (Fold) increase” value is “*** (a fold increase between >1.35 and ≤1.5 is indicated by three stars (***))”.
`Cc1cc2cc(-c3cc(=O)n4cc(N5CCNCC5)ccc4n3)oc2c(C)n1` [Cpd 486, 2-(5,7-dimethylfuro[2,3-c]pyridin-2-yl)-7-(piperazin-1-yl)-4H-pyrido[1,2-a]pyrimidin-4-one] had a melting point of 198 to 200 °C. Further, the EC (1.5-fold increase) in data set [1] was < 0.1 µM. Besides, in data set [2], the “EC1.5x for Smn protein expression” value is given as “**** (an EC1.5x≤0.3 μM is indicated by four stars (****))”; the “maximum fold (Fold) increase” value is “**** (a fold increase between >1.5 and ≤1.65 is indicated by four stars (****))”.
For the compound `COc1ccc(-c2cc(=O)n3cc(C4=CCN(C5CC5)CC4)cc(C)c3n2)cc1OC` [Compound 390, 7-(1-cyclopropyl-1,2,3,6-tetrahydropyridin-4-yl)-2-(3,4-dimethoxyphenyl)-9-methyl-4H-pyrido[1,2-a]pyrimidin-4-one], the melting point was in the range of 180 to 189 °C. Also, the EC (1.5-fold increase) in data set [1] fell in the range of 0.3 to 1 µM. For the same compound, the “maximum fold (Fold) increase” value in data set [2] is “* (A maximum fold increase of ≤1.2 is indicated by one star (*))”.
In turn, `Cc1cn2cc(-c3cc(=O)n4cc(C5CCN(CCO)CC5)ncc4n3)cc(C)c2n1` [Compound 594, 2-(2,8-dimethylimidazo[1,2-a]pyridin-6-yl)-7-[1-(2-hydroxyethyl)piperidin-4-yl]-4H-pyrazino[1,2-a]pyrimidin-4-one] showed a melting point of 242 to 244 °C. Further, the EC (1.5-fold increase) in data set [1] was 0.1 to 0.3 µM. In data set [2], the “EC1.5x for Smn protein expression” value was “*** (an EC1.5× between >0.3 μM and ≤1 μM is indicated by three stars (***))”; the “maximum fold (Fold) increase” value is “**** (a fold increase between >1.5 and ≤1.65 is indicated by four stars (****))”.
`Cc1cn2cc(-c3cc(=O)n4cc(N5CCN(C)CC5)ccc4n3)cc(CO)c2n1` [Compound 677, 2-[8-(hydroxymethyl)-2-methylimidazo[1,2-a]pyridin-6-yl]-7-(4-methylpiperazin-1-yl)-4H-pyrido[1,2-a]pyrimidin-4-one] had a melting point of 262 to 266 °C. In addition, in data set [1], the EC (1.5-fold increase) was < 0.1 µM. In data set [2], the “EC1.5x for Smn protein expression” value was “*** (an EC1.5× between >0.3 μM and ≤1 μM is indicated by three stars (***))”; the “maximum fold (Fold) increase” value is on record as “***** (a fold increase >1.65 is indicated by five stars (*****))”.

For the origin of these results see patent publication US11753407B2, “Compounds for treating spinal muscular atrophy” (PTC Therapeutics, Inc., priority 2012, dated 2023).
